Here are results for two compounds from US9562031B1, “Phenethyldihydrobenzodioxolones and methods of use” (Sequoia Sciences, Inc., priority 2015, dated 2017).

Molecules are shown by their SMILES. pIC50: −log10 of the molar value. “And” between values parts separate entries of the source, which are not always exact repeats. Equal values may be shown once. Read-outs that look alike come from different tables or passages of the source.

The test system of data set [1] is NCI-H460 (lung) xenograft tumors. In words: tumor growth inhibition, NCI-H460 murine xenograft model. It is filed as in vivo, mice. Here is the method:
Tumor growth inhibition of compound 4 was measured in several murine xenograft models, and the results of individual experiments are listed in Table 14. Tumors were initiated by subcutaneous injection of either tumor cells from cell culture or tumor fragments from continuous in vivo passage. When tumors reached volumes between approximately 100 and 200 mm^3, the mice were divided into vehicle and treatment groups. Compound or vehicle was administered by IP injection in a volume of 5-10 mL/kg.
Changes in tumor weight (delta weights) for each treated (T) and control (C) group are calculated for each day tumors are measured by subtracting the median tumor weight on the first day of treatment (staging day) from the median tumor weight on the specified observation day. These values are used to calculate a percent T/C as follows: % T/C=(delta T/delta C)×100. The optimal T/C is the minimal value obtained after the first treatment.

The test system of data set [2] is K-562 cells. In words: antiproliferation assay, K-562. It is filed as cell-based. The conditions noted are these: Homo sapiens, K562. Here is the method: (§1) For the antiproliferation assay, NCI-H460 (large cell lung carcinoma) or M14 (amelanotic melanoma) cells were grown in RPMI-1640 with 10% FBS supplemented with L-glutamine and HEPES. Cells were seeded into 96-well plates at 5×10^2 to 5×10^4 cells/well and allowed to adhere overnight; the medium was then removed. A stock solution of test compound in DMSO was diluted in medium to generate a series of working solutions. Aliquots (100 μl) of the working solutions were then added to the appropriate test wells to expose cells to the final concentrations of compound in a total volume of 100 μl. Seven different concentrations were tested, with 2-5 wells per concentration. Camptothecin was used as a positive control; wells containing vehicle without compound were used as negative controls. Plates were kept for 72 h in a 37° C., 5% CO2 incubator. After incubation, viable cells were detected with the CELLTITER 96 AQueous Non-Radioactive Cell Proliferation Assay (Promega), and IC50 values were determined using GraphPad Prism 5 software.
Antiproliferation of several of the active compounds was tested against additional cell lines.

Data set [3] concerns NCI-H460 (large cell lung carcinoma) cells. The data set is described as follows: antiproliferation assay (72 h, CELLTITER 96), NCI-H460. In kind it is cell-based, human. The conditions noted are these: Homo sapiens. The method in brief: (§2)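 Human M14 melanoma and NCI-H460 lung carcinoma cells in RPMI-1640/10% FBS, seeded at 5×10^2–5×10^4 cells/well and adhered overnight, then exposed to seven compound concentrations for 72 h at 37 °C. Viable cells read by CellTiter 96 AQueous (MTS); IC50 = concentration giving 50% of maximal growth inhibition.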

The next data set concerns UO-31 cells. The data set is described as follows: antiproliferation assay, paclitaxel-resistant UO-31. In kind it is cell-based. The note with it: Homo sapiens. As for the experimental part:
as §1
Compound 4 was tested for antiproliferation activity against several paclitaxel-resistant human cancer cell lines.

Data set [4] concerns M14 (amelanotic melanoma) cells. The data set is described as follows: antiproliferation assay (72 h, CELLTITER 96), M14. It is filed as cell-based, human. The conditions noted are these: Homo sapiens. The method in brief: as §2
Data set [5] is described as follows: compound concentrations in mouse plasma after IP injection (LC/MS). It is filed as in vivo. The conditions noted are these: mice, IP 40 mg/kg, 3-5 h after injection; vehicle 42.97% propylene glycol, 0.23% TWEEN-20, 31.5% PEG400, 15.3% ethanol, 10% water. Here is the method:
The bioavailabilities of certain compounds were examined in mice. Administration of the compounds was performed by intraperitoneal (IP) injection using a vehicle as known to those skilled in the art. To measure compound concentrations in plasma, blood is collected by cardiac puncture at a specified time after […]. It is then centrifuged in a plasma separator tube with NaEDTA/NaF as the anticoagulant, and the resulting plasma is stored at −80° C. For analysis, an internal standard is added to a 200 μL aliquot of plasma, and the aliquot is extracted with ethyl acetate. The ethyl acetate extract is analyzed by LC/MS and quantitated using a standard curve prepared by adding known amounts of test compound and internal standard to 200 μL aliquots of blank mouse plasma.
Many vehicles can be used to examine bioavailability. […]
Plasma concentrations were measured for several additional compounds. Table 12 lists plasma concentrations (as a multiple of the compound's IC50 against NCI-H460 cells) measured for these compounds at different time points after injection, along with the vehicle used.

The subject of the next data set is EKVX cells. In words: NCI-60 panel antiproliferation, EKVX. It is filed as cell-based, human. The conditions noted are these: Homo sapiens, NCI 60-cell panel. Here is the method:
(§3) Bifidenone and Compound 37 were tested for antiproliferation activity against the NCI-60 panel of cancer cell lines. COMPARE analysis was then conducted to compare the activity “fingerprint” of bifidenone to those of known classes of compounds (Zhou, B.-N., Hoch, J. M., Johnson, R. K., Mattern, M. R., Eng, W.-K., Ma, J., Hecht, S. M., Newman, D. J., Kingston, D. G. I., 2000. Use of COMPARE Analysis to Discover New Natural Product Drugs: Isolation of Camptothecin and 9-Methoxycamptothecin from a New Source. Journal of Natural Products 63, 1273-1276.).

Data set [6] deals with K-562 cells. In words: NCI-60 panel antiproliferation, K-562. In kind it is cell-based, human. The note with it: Homo sapiens, K562, NCI 60-cell panel. Here is the method:
as §3

The subject of a further data set is OVCAR-4 cells. In words: NCI-60 panel antiproliferation, OVCAR-4. The note with it: Homo sapiens, NCI 60-cell panel. It is filed as cell-based, human. As for the experimental part: as §3
The next data set has as its system SK-Mel-2 cells. The data set is described as follows: NCI-60 panel antiproliferation, SK-MEL-2. In kind it is cell-based, human. The conditions noted are these: Homo sapiens, NCI 60-cell panel. As for the experimental part: as §3
Setting [7] is: IP 30 mg/kg, days 0,1,2,3,5,6,7,8,10,11,12,13.
[8] abbreviates: IP 60 mg/kg, days 0,1,2,5,6,7,10,11,12.

What is called pIC50 is the negative decadic logarithm of the IC50, by convention in mol/L. With `C=CC[C@H]1C[C@]2([C@H](C)Cc3cc(O)c(OC)cc3F)OCOC2=CC1=O` (relative stereo) [Compound 4, 6-allyl-7a-(1-(2-fluoro-5-hydroxy-4-methoxyphenyl)propan-2-yl)-7,7a-dihydrobenzo[d][1,3]dioxol-5(6H)-one], the “Maximum Mean Body Weight Loss” value was 7% in [1] (setting [7]); 7% in [1] (IP 40 mg/kg, days 0,1,2,5,6,7,10,11,12 (two experiments)); 9% in data set [1] (setting [8]). Besides, the “Optimal T/C” value in data set [1] (setting [7]) was 42%; in data set [1] (IP 40 mg/kg, days 0,1,2,5,6,7,10,11,12 (two experiments), 40 mg/kg), 29% and 35%; in data set [1] (setting [8]) it was 40%. Also, the pIC50 is 7.89 in the data set on K-562 cells [2]; 7.82 in [3] (NCI-H460, Table 3, read-out: NCI-H460 IC50); 7.82 in data set [3] (NCI-H460, as quoted in the pharmacokinetics text, read-out: IC50 against NCI-H460 human lung cancer cells); 8.15 in the data set with UO-31 cells; 7.96 in data set [4] (Table 3). Further, the “plasma concentration relative to IC50 against NCI-H460” value in data set [5] is “below its IC50”.
With `C=CC[C@H]1C[C@]2([C@@H](C)Cc3ccc(OC)c(F)c3)OCOC2=CC1=O` [Compound 37, (6S,7aR)-6-allyl-7a-((S)-1-(3-fluoro-4-methoxyphenyl)propan-2-yl)-7,7a-dihydrobenzo[d][1,3]dioxol-5(6H)-one], the pIC50 with EKVX cells is 6.83; in the data set with K-562 cells [6], 7.37; with OVCAR-4 cells, 6.93; in [3] (NCI-H460, Table 4, read-out: NCI-H460 IC50), 7.07; in the data set with SK-Mel-2 cells, 7.29; in data set [4] (Table 4), 8.10.
